The values below come from ChEMBL document CHEMBL1144190, “Structure-activity relationship study of a novel necroptosis inhibitor, necrostatin-7” (Bioorg Med Chem Lett, 2008).

In assay [1] the test system is Jurkat. The assay can be described thus: Inhibition of TNF-alpha-induced necroptosis in FADD-deficient human Jurkat cells. Format: functional, cell-based.
Assay [2] addresses T1, Receptor-interacting serine/threonine-protein kinase 1 (Homo sapiens) (UniProt Q13546).
T1 sequence (whole entry): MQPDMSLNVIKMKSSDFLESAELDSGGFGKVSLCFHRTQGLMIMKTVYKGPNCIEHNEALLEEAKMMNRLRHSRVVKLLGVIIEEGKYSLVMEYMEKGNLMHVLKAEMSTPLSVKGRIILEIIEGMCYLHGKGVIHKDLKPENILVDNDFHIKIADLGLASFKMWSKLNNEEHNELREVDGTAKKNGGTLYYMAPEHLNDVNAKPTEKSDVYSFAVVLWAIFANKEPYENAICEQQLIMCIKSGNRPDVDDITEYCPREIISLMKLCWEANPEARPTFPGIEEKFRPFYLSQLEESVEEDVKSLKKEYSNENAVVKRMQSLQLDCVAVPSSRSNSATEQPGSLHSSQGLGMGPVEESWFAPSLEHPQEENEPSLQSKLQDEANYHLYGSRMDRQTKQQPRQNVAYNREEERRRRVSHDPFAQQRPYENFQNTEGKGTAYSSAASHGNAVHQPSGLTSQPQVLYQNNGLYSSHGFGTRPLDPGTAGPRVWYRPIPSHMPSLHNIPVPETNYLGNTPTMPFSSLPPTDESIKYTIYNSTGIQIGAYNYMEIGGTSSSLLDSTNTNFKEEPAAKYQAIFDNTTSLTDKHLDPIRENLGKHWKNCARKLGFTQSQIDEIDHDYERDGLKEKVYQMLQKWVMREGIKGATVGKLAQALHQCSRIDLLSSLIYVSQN
The assay can be described thus: Inhibition of GST-tagged human recombinant RIP1 kinase expressed in Sf9 cells.

The structures appear in SMILES notation. Active and inactive are the calls of the source. No cut-off for these calls is given here. Some results are limits rather than exact numbers.

For the compound `N=C1S/C(=C\c2n[nH]nc2-c2ccc(F)cc2)C(=O)N1c1nccs1`, the outcome in assay [1] was inactive.

Regarding `N=C1S/C(=C\c2c[nH]nc2-c2ccccc2F)C(=O)N1c1nncs1`, the outcome in assay [1] was inactive.

Consider `N=C1S/C(=C\c2c[nH]nc2-c2cccc(F)c2)C(=O)N1c1nccs1`, for which the outcome in assay [1] was inactive.

With `N=C1S/C(=C\c2c[nH]nc2-c2ccc(C(=O)N3CCCCC3)cc2)C(=O)N1c1nccs1`, a half-maximal effect in assay [1] (EC50) was put at 2.09 µM. This counts as single-digit micromolar.

With `Cc1ccc(-c2n[nH]cc2/C=C2\SC(=N)N(c3nccs3)C2=O)cc1`, it took 7.77 µM to reach a half-maximal effect in assay [1] (EC50).

As for `N=C1S/C(=C\c2conc2-c2ccc(F)cc2)C(=O)N1c1nccs1`, the outcome in assay [1] was inactive.

For `N=C1S/C(=C\c2c[nH]nc2-c2cccc(F)c2)C(=O)N1c1nncs1`, the outcome in assay [1] was inactive.

Turning to `N=C1S/C(=C\c2c[nH]nc2-c2ccc([N+](=O)[O-])cc2)C(=O)N1c1nccs1`, the EC50 (in general, the concentration at which the effect is half-maximal) in assay [1] stood at 23 µM.

As for `N=C1S/C(=C\c2c[nH]nc2-c2ccccc2)C(=O)N1c1nncs1`, in assay [1], the outcome was inactive.

As for `N=C1S/C(=C\c2c[nH]nc2-c2ccc(F)c(F)c2)C(=O)N1c1nccs1`, in assay [1], the response was half-maximal at 6.32 µM (EC50).

In turn, `COc1ccc(-c2ccc(-c3n[nH]cc3/C=C3\SC(=N)N(c4nccs4)C3=O)cc2)cc1` displayed an EC50 in assay [1] of 2.59 µM.

Compound `N=C1S/C(=C\c2c[nH]nc2-c2ccc(N3CCCC3)cc2)C(=O)N1c1nccs1` displayed an EC50 in assay [1] of 9.53 µM.

Turning to `Cc1cc(/C=C2\SC(=N)N(c3nccs3)C2=O)c(-c2ccc(F)cc2)[nH]1`, in assay [1], the result was inactive.

Consider `N=C1S/C(=C\c2c[nH]nc2-c2ccc(F)cc2)C(=O)N1c1nccs1`, for which the EC50 in assay [1] was 10.6 µM.

`N=C1S/C(=C\c2c[nH]nc2-c2ccc(S(=O)(=O)c3ccccc3)cc2)C(=O)N1c1nccs1`: in assay [2], the outcome was inactive. Further, the EC50 in assay [1] is 1.78 µM.

For the compound `N=C1S/C(=C\c2n[nH]nc2-c2ccccc2)C(=O)N1c1nccs1`, in assay [1], the outcome was inactive.

In assay [1], `N=C1S/C(=C\c2c[nH]nc2-c2ccc(O)cc2)C(=O)N1c1nccs1` showed an EC50 of 32.7 µM. This counts as double-digit micromolar.

Compound `Cc1ccc(-c2ccc(-c3n[nH]cc3/C=C3\SC(=N)N(c4nccs4)C3=O)cc2)cc1` showed an EC50 in assay [1] of 4.38 µM.

Take `N=C1S/C(=C\c2c[nH]nc2-c2ccc(Br)cc2)C(=O)N1c1nccs1`: it took 34.5 µM to reach a half-maximal effect in assay [1] (EC50).

The compound `N=C1S/C(=C\c2c[nH]nc2-c2ccc(-c3ccc(Cl)cc3)cc2)C(=O)N1c1nccs1` yielded an EC50 in assay [1] of over 100 µM.

For `Cc1cnc(N2C(=N)S/C(=C\c3c[nH]nc3-c3ccc(F)cc3)C2=O)s1`, in assay [1], the EC50 was 23.1 µM.

With `N=C1S/C(=C\c2c[nH]nc2-c2ccc(N3CCSCC3)cc2)C(=O)N1c1nccs1`, the response in assay [1] was half-maximal at 3.3 µM (EC50).

With `N=C1S/C(=C\c2n[nH]nc2-c2ccc(Cl)cc2)C(=O)N1c1nccs1`, the result in assay [1] was inactive.

For `N=C1S/C(=C\c2conc2-c2ccc(Cl)cc2)C(=O)N1c1nccs1`, in assay [1], the outcome was inactive.

For the compound `N=C1S/C(=C\c2c[nH]nc2-c2ccc3c(c2)OCO3)C(=O)N1c1nccs1`, in assay [1], the response was half-maximal at 34.8 µM (EC50). That is a double-digit micromolar value.

Turning to `N=C1S/C(=C\c2c[nH]nc2-c2ccccc2F)C(=O)N1c1nccs1`, the outcome in assay [1] was inactive.

With `N=C1S/C(=C\c2cc(CC(N)=O)[nH]c2-c2ccc(F)cc2)C(=O)N1c1nccs1`, the outcome in assay [1] was inactive.

Regarding `N=C1S/C(=C\c2cc(Cc3ccccc3)[nH]c2-c2ccc(F)cc2)C(=O)N1c1nccs1`, in assay [1], the outcome was inactive.

`N=C1S/C(=C\c2c[nH]nc2-c2ccccc2)C(=O)N1c1nccs1` showed an EC50 in assay [1] of 40.6 µM.

As for `N=C1S/C(=C\c2c[nH]nc2-c2ccc(N3CCCCC3)cc2)C(=O)N1c1nccs1`, in assay [1], the EC50 was determined as 6.36 µM. This EC50 lies about 6.4-fold lower than the previous one.

In the case of `N=C1S/C(=C\c2conc2-c2ccc([N+](=O)[O-])cc2)C(=O)N1c1nccs1`, in assay [1], the outcome was inactive.

Regarding `COc1ccccc1-c1ccc(-c2n[nH]cc2/C=C2\SC(=N)N(c3nccs3)C2=O)cc1`, the EC50 in assay [1] worked out at 2.41 µM.

For the compound `N=C1S/C(=C\c2cc(-c3ccccc3)[nH]c2-c2ccc(F)cc2)C(=O)N1c1nccs1`, the result in assay [1] was inactive.

Turning to `N=C1S/C(=C\c2c[nH]nc2-c2ccc(F)cc2)C(=O)N1c1nncs1`, the outcome in assay [1] was inactive.

On to `N=C1S/C(=C\c2c[nH]nc2-c2ccc(-c3cccc(F)c3)cc2)C(=O)N1c1nccs1`, for which, in assay [1], the EC50 worked out at 48 µM.

`COc1ccc(-c2n[nH]cc2/C=C2\SC(=N)N(c3nccs3)C2=O)cc1` yielded an EC50 in assay [1] of 14.9 µM. Compared with the last compound, the EC50 is about 3.2-fold lower.

With `Cc1ccc(-c2nocc2/C=C2\SC(=N)N(c3nccs3)C2=O)cc1`, in assay [1], the result was inactive.

For `N=C1S/C(=C\c2c[nH]nc2-c2ccc(N3CCOCC3)cc2)C(=O)N1c1nccs1`, a half-maximal effect in assay [1] (EC50) was put at 2.93 µM.

`N=C1S/C(=C\c2c[nH]nc2-c2ccc(Cl)cc2)C(=O)N1c1nccs1` had an EC50 in assay [1] of 15.6 µM. Against the preceding compound, the EC50 is about 5.3-fold higher.

In the case of `N=C1S/C(=C\c2c[nH]nc2-c2ccc(-c3ccccc3)cc2)C(=O)N1c1nccs1`, in assay [1], the EC50 is 1.29 µM.

Compound `N=C1S/C(=C\c2c[nH]nc2-c2ccc(-c3ccc(F)cc3)cc2)C(=O)N1c1nccs1` showed an EC50 in assay [1] of 3.87 µM.

With `COc1ccc(-c2n[nH]nc2/C=C2\SC(=N)N(c3nccs3)C2=O)cc1`, in assay [1], the outcome was inactive.

As to `Cc1csc(N2C(=N)S/C(=C\c3c[nH]nc3-c3ccc(F)cc3)C2=O)n1`, it took 5.25 µM to reach a half-maximal effect in assay [1] (EC50).

In assay [1], `N=C1S/C(=C\c2c[nH]nc2-c2ccc(F)c(N3CCOCC3)c2)C(=O)N1c1nccs1` yielded an EC50 of 2.9 µM.

The compound `N=C1S/C(=C\c2c[nH]nc2-c2ccc(C(=O)N3CCOCC3)cc2)C(=O)N1c1nccs1` displayed an EC50 in assay [1] of 7.19 µM.
